From patent US20250163064A1, “QUINAZOLINE COMPOUNDS AND USES THEREOF AS INHIBITORS OF MUTANT KRAS PROTEINS” (AMGEN INC., priority 2022, published 2025)

Columns and labels:
[1] = test system: Phosphorylation of ERK1/2 in AsPC-1 cells; assay: Phospho-ERK1/2 MSD Assay; type: cell-based; details: Homo sapiens, ASPC1, 2 h, read-out: 2 h p-ERK (AsPC-1 cells), IC50 (μM), AsPC-1 cells, 2 h compound treatment
Procedure: AsPC-1 (ATCC® CRL-1682TM) cells were cultured in RPMI 1640 Medium (ThermoFisher Scientific 11875093) containing 10% fetal bovine serum (ThermoFisher Scientific 16000044) and 1× penicillin-streptomycin-glutamine (ThermoFisher Scientific 10378016). Sixteen hours prior to compound treatment, AsPC-1 cells were seeded in 96-well cell culture plates at a density of 25,000 cells/well and incubated at 37° C., 5% CO2. A compound dose-response titration was diluted in growth media, added to appropriate wells of a cell culture plate, and then incubated at 37° C., 5% CO2 for 2 hours. Following compound treatment, cells were washed with ice-cold Dulbecco's phosphate-buffered saline, no Ca^2+ or Mg^2+ (ThermoFisher Scientific 14190144), and then lysed in RIPA buffer (50 mM Tris-HCl pH 7.5, 1% Igepal, 0.5% sodium deoxycholate, 150 mM NaCl, and 0.5% sodium dodecyl sulfate) containing protease inhibitors (Roche 4693132001) and phosphatase inhibitors (Roche 4906837001). Phosphorylation of ERK1/2 in compound-treated lysates was assayed using Phospho-ERK1/2 Whole Cell Lysate kits (Meso Scale Discovery K151DWD) according to the manufacturer's protocol. Assay plates were read on a Meso Scale Discovery Sector Imager 6000, and data were analyzed using a 4-parameter logistic model to calculate IC50 values.

[2] = target: His-tagged KRAS G12D protein (Homo sapiens (Human), UniProt P01116, G12D); assay: KRAS G12D TR-FRET Assay; type: binding; details: biotinylated KRPep-2d, 10 μM GDP
Procedure: Compounds of interest were prepared in a dose-response titration in DMSO, and 80 nL were added via Labcyte Echo to each well of a 384-well plate (Perkin Elmer 6008280). The His-tagged KRAS G12D protein (Amgen) was diluted to 20 nM in Assay Buffer (20 mM HEPES, pH 7.4, 10 mM MgCl2, 50 mM NaCl, 0.1% BSA, 0.01% Tween-20, 10 μM GDP) and 2 μL was added to the appropriate wells of the 384-well plate. The plate was incubated for 30 minutes at rt. Biotinylated KRPep-2d substrate (Amgen) was diluted to […] in Assay Buffer and 2 AL was added to all wells and incubated for 1 hour at room temperature. Detection Reagent (0.4 nM LANCE Eu-W1024 Anti-6×His (Perkin Elmer AD0401), 5 nM streptavidin-d2 (Cisbio 610SADLA)) was prepared in Assay Buffer, then 4 AL was added to the plate and incubated for 1 h at rt. Plates were read using PerkinElmer En Vision (ex: 320 nm, em1: 665 nm, em2: 615 nm) and em1/em2 data was used to generate curve fits using a 4-parameter logistic model to calculate IC50 values.

[3] = target: GDP-bound KRAS protein (aa 1-169), G12D and C118A; SOS-mediated nucleotide exchange (Homo sapiens (Human), UniProt P01116, C118A/G12D); assay: KRAS G12D Coupled Nucleotide Exchange Assay; type: biochemical; details: 2 h compound pre-incubation, GTP, cRAF AlphaScreen
Procedure: Purified GDP-bound KRAS protein (aa 1-169), containing both G12D and C118A amino acid substitutions and an N-terminal His-tag, was pre-incubated in assay buffer (25 mM HEPES pH 7.4, 10 mM MgCl2, and 0.01% Triton X-100) with a compound dose-response titration for 2 h. Following compound pre-incubation, purified SOS protein (aa 564-1049) and GTP (Roche 10106399001) were added to the assay wells and incubated for an additional 30 min. […] The assay plates were then read on a PerkinElmer En Vision Multilabel Reader, using AlphaScreen® technology, and data were analyzed using a 4-parameter logistic model to calculate IC50 values.

GDP-bound KRAS protein (aa 1-169), G12D and C118A; SOS-mediated nucleotide exchange, sequence (P01116 other isoform, or with tags, fused parts or gaps G12D/C118A): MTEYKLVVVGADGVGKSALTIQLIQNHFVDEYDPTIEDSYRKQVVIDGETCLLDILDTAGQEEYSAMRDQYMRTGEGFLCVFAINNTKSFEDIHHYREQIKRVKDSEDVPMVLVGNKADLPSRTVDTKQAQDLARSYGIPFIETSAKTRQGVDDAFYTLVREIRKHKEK
His-tagged KRAS G12D protein, sequence (P01116-2 other isoform, or with tags, fused parts or gaps G12D): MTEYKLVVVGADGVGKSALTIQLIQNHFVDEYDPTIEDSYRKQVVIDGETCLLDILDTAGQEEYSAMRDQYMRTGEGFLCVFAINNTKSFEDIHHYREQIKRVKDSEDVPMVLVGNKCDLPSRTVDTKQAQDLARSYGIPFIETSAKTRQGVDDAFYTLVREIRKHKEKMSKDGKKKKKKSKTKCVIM

SMILES | IC50 [1] | IC50 [2] | IC50 [3]
C[C@@H]1[C@H](O)CCN1c1nc(OC[C@@]23CCCN2C[C@H](F)C3)nc2c(F)c(-c3ccc(F)c4sc(N)c(C#N)c34)c(Cl)cc12 [Example 65, 2-Amino-4-(6-chloro-8-fluoro-2-(((2R,7aS)-2-fluorotetrahydro-1H-pyrrolizin-7a(5H)-yl)methoxy)-4-((2R,3R)-3-hydroxy-2-methylpyrrolidin-1-yl)quinazolin-7-yl)-7-fluorobenzo[b] thiophene-3-carbonitrile] | 0.33 µM | 12 nM | 6 nM
N#Cc1c(N)sc2c(F)ccc(-c3c(Cl)cc4c(N5CCOCC(O)(C(F)F)C5)nc(OC[C@@]56CCCN5C[C@H](F)C6)nc4c3F)c12 (single isomer, unassigned) [Example 46] | 0.148 µM | 6 nM | 3 nM
N#Cc1c(N)sc2c(F)ccc(-c3c(Cl)cc4c(N5CCCCC(C#N)C5)nc(OC[C@@]56CCCN5C[C@H](F)C6)nc4c3F)c12 (stereo partly drawn) [Example 57, 1-(7-(2-Amino-3-cyano-7-fluorobenzo[b]thiophen-4-yl)-6-chloro-8-fluoro-2-(((2R,7aS)-2-fluorotetrahydro-1H-pyrrolizin-7a(5H)-yl)methoxy)quinazolin-4-yl)azepane-3-carbonitrile] | 0.061 µM | 3 nM | 3 nM
N#Cc1c(N)sc2c(F)ccc(-c3c(Cl)cc4c(N5CC6COC(C6)C5)nc(OC[C@@]56CCCN5C[C@H](F)C6)nc4c3F)c12 (stereo partly drawn) [Example 33, 4-(4-(6-Oxa-3-azabicyclo[3.2.1]octan-3-yl)-6-chloro-8-fluoro-2-(((2R,7aS)-2-fluorotetrahydro-1H-pyrrolizin-7a(5H)-yl)methoxy)quinazolin-7-yl)-2-amino-7-fluorobenzo[b] thiophene-3-carbonitrile] | 0.285 µM | 3 nM | 3 nM
C[C@]1(CO)CCCN1c1nc(OC[C@@]23CCCN2C[C@H](F)C3)nc2c(F)c(-c3ccc(F)c4sc(N)c(C#N)c34)c(Cl)cc12 [Example 52, 2-Amino-4-(6-chloro-8-fluoro-2-(((2R,7aS)-2-fluorotetrahydro-1H-pyrrolizin-7a(5H)-yl)methoxy)-4-((R)-2-(hydroxymethyl)-2-methylpyrrolidin-1-yl)quinazolin-7-yl)-7-fluorobenzo[b] thiophene-3-carbonitrile] | 0.505 µM | 8 nM | 7 nM
C=Cc1cc2c(N3CCOCC(C)(O)C3)nc(OC[C@@]34CCCN3C[C@H](F)C4)nc2c(F)c1-c1ccc(F)c2sc(N)c(C#N)c12 (stereo partly drawn) [Example 61, 2-Amino-7-fluoro-4-(8-fluoro-2-(((2R,7aS)-2-fluorotetrahydro-1H-pyrrolizin-7a(5H)-yl)methoxy)-4-(6-hydroxy-6-methyl-1,4-oxazepan-4-yl)-6-vinylquinazolin-7-yl)benzo[b]thiophene-3-carbonitrile] | 0.05 µM | 5 nM | 3 nM
N#CC[C@@H]1CCCN1c1nc(OC[C@@]23CCCN2C[C@H](F)C3)nc2c(F)c(-c3ccc(F)c4sc(N)c(C#N)c34)c(Cl)cc12 [Example 50, 2-Amino-4-(6-chloro-4-((S)-2-(cyanomethyl)pyrrolidin-1-yl)-8-fluoro-2-(((2R,7aS)-2-fluorotetrahydro-1H-pyrrolizin-7a(5H)-yl)methoxy)quinazolin-7-yl)-7-fluorobenzo[b] thiophene-3-carbonitrile] | 0.307 µM | 7 nM | 7 nM
N#Cc1c(N)sc2c(F)ccc(-c3c(Cl)cc4c(N5CCCC(=O)CC5)nc(OC[C@@]56CCCN5C[C@H](F)C6)nc4c3F)c12 [Example 16, 2-Amino-4-(6-chloro-8-fluoro-2-(((2R,7a.S)-2-fluorotetrahydro-1H-pyrrolizin-7a(5H)-yl)methoxy)-4-(4-oxoazepan-1-yl)quinazolin-7-yl)-7-fluorobenzo[b] thiophene-3-carbonitrile] | 0.076 µM | 2 nM | 3 nM
N#Cc1c(N)sc2c(F)ccc(-c3c(Cl)cc4c(N5CCOC[C@@H](O)C5)nc(OC[C@@]56CCCN5C[C@H](F)C6)nc4c3F)c12 [Example 32, 2-Amino-4-(6-chloro-8-fluoro-2-(((2R,7aS)-2-fluorotetrahydro-1H-pyrrolizin-7a(5H)-yl)methoxy)-4-((S)-6-hydroxy-1,4-oxazepan-4-yl)quinazolin-7-yl)-7-fluorobenzo[b] thiophene-3-carbonitrile] | 0.079 µM | 2 nM | 2 nM
N#Cc1c(N)sc2c(F)ccc(-c3c(Cl)cc4c(N5CCCC6(CC(O)C6)C5)nc(OC[C@@]56CCCN5C[C@H](F)C6)nc4c3F)c12 (stereo partly drawn) [Example 64, 2-Amino-4-(6-chloro-8-fluoro-2-(((2R,7aS)-2-fluorotetrahydro-1H-pyrrolizin-7a(5H)-yl)methoxy)-4-(2-hydroxy-6-azaspiro[3.5]nonan-6-yl)quinazolin-7-yl)-7-fluorobenzo[b]thiophene-3-carbonitrile] | 1.52 µM | 25 nM | 28 nM
N#Cc1c(N)sc2c(F)ccc(-c3c(Cl)cc4c(N5CCOCC(F)(F)C5)nc(OC[C@@]56CCCN5C[C@H](F)C6)nc4c3F)c12 [Example 34, 2-Amino-4-(6-chloro-4-(6,6-difluoro-1,4-oxazepan-4-yl)-8-fluoro-2-(((2R,7aS)-2-fluorotetrahydro-1H-pyrrolizin-7a(5H)-yl)methoxy)quinazolin-7-yl)-7-fluorobenzo[b] thiophone-3-carbonitrile] | 0.093 µM | 4 nM | 4 nM
N#Cc1c(N)sc2c(F)ccc(-c3c(Cl)cc4c(N5CCOC[C@H](O)C5)nc(OC[C@@]56CCCN5C[C@H](F)C6)nc4c3F)c12 [Example 30, 2-Amino-4-(6-chloro-8-fluoro-2-(((2R,7aS)-2-fluorotetrahydro-1H-pyrrolizin-7a(5H)-yl)methoxy)-4-((R)-6-hydroxy-1,4-oxazepan-4-yl)quinazolin-7-yl)-7-fluorobenzo[b] thiophene-3-carbonitrile] | 0.212 µM | 0.4 nM | 0.8 nM
N#Cc1c(N)sc2c(F)ccc(-c3c(Cl)cc4c(N5CCOCC(F)C5)nc(OC[C@@]56CCCN5C[C@H](F)C6)nc4c3F)c12 (single isomer, unassigned) [Example 58] | 0.078 µM | 3 nM | 1 nM
C[C@]1(O)CCCN(c2nc(OC[C@@]34CCCN3C[C@H](F)C4)nc3c(F)c(-c4ccc(F)c5sc(N)c(C#N)c45)c(Cl)cc23)C1 [Example 39, 2-Amino-4-(6-chloro-8-fluoro-2-(((2R,7aS)-2-fluorotetrahydro-1H-pyrrolizin-7a(5H)-yl)methoxy)-4-((S)-3-hydroxy-3-methylpiperidin-1-yl)quinazolin-7-yl)-7-fluorobenzo[b] thiophene-3-carbonitrile] | 0.283 µM | 10 nM | 11 nM
N#Cc1c(N)sc2c(F)ccc(-c3c(Cl)cc4c(N5CCCCC(S(N)(=O)=O)C5)nc(OC[C@@]56CCCN5C[C@H](F)C6)nc4c3F)c12 (stereo partly drawn) [Example 15, 1-(7-(2-Amino-3-cyano-7-fluorobenzo[b]thiophen-4-yl)-6-chloro-8-fluoro-2-(((2R,7aS)-2-fluorotetrahydro-1H-pyrrolizin-7a(5H)-yl)methoxy)quinazolin-4-yl)azepane-3-sulfonamide] | 0.296 µM | 3 nM | 4 nM
